Reference: patent publication US10259779B2 (WAYNE STATE UNIVERSITY, priority 2016, dated 2019)
Each block holds one molecule with its values, some of them ahead of it.

Experiments:
HDAC2 = HDAC2 (Homo sapiens, UniProt Q92769); assay: ELISA-based HDAC activity assay, HDAC2; settings: read-out: Deacetylase activity (%) HDAC2
HDAC3 = HDAC3 (Homo sapiens, UniProt O15379); assay: ELISA-based HDAC activity assay, HDAC3; settings: read-out: Deacetylase activity (%) HDAC3
HDAC1 [1] = target: T1, HDAC1 (Homo sapiens, UniProt Q13547); assay: ELISA-based HDAC activity assay, HDAC1; settings: read-out: Deacetylase activity (%) HDAC1
T1 sequence (Q13547 whole entry): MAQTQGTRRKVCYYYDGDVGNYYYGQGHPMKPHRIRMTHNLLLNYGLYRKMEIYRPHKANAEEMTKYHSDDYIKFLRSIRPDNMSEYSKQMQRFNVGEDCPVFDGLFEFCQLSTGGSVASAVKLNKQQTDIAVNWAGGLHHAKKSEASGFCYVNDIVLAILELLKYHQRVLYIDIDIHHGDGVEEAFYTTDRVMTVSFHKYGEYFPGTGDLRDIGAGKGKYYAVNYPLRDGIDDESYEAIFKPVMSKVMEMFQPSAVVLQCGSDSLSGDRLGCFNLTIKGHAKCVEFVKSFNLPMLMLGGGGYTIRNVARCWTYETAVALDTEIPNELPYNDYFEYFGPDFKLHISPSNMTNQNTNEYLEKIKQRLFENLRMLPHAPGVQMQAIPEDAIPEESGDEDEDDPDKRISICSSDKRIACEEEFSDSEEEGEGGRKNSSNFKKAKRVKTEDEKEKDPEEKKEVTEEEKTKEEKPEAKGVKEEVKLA

[2] = system: HDAC proteins in HeLa cell lysates; assay: Global HDAC inhibition with HeLa cell lysates (HDAC-Glo I/II substrate); assay type: biochemical; settings: Hela Lysate
Description: HDAC activity was measured using the commercially available HDAC-Glo™ I/II substrate (Promega).
Lysates were prepared according to the reported procedure.^28 HeLa-S3 cells (purchased from Biovest) were lysed in lysis buffer (1×10^9 cells in 10 mL lysis buffer; 50 mM Tris-HCl, pH 8.0, 10% glycerol, 150 mM NaCl, 0.5% Triton X-100, and 1× protease inhibitor cocktail (GenDEPOT)) with rotation at 4° C. for 30 min. Cell debris was removed by centrifugation at 12000 rpm at 4° C. for 30 min. Protein concentration of the supernatant was determined using Bio-Rad protein assay (BioRad, Bradford reagent). Lysates were stored at −80° C.
To measure global HDAC inhibition, HeLa cell lysates (1 μg total protein) were mixed with HDAC-Glo™ buffer in polystyrene 96-well half area white plate (Corning) to a final volume of 12 μL, followed by addition of inhibitors in DMSO (0.5 μL) and incubation for 15 min at room temperature without rocking. An uninhibited control reaction was also included that contained DMSO (0.5 μL). Finally, deacetylase activity was measured using the HDAC-Glo™ assay kit (Promega) as per the manufacturer's protocol. Specifically, the HDAC-Glo™ substrate (1 mL) and developer ([…]) were first premixed to form the HDAC-Glo™ reagents. Then, to monitor deacetylase activity, HDAC-Glo™ reagent (5 μL) and HDAC-Glo™ buffer (7.5 μL) were added to each well (25 μL total volume) and incubated for 35 min at room temperature without rocking. The deacetylase activity was measured as luminescent signal using a GeniosPlus Fluorimeter (Tecan) at optimal gain. The concentrations of inhibitors reported in the dose-dependent studies (Table 2) are final concentrations after addition of HDAC-Glo™ reagent HDAC-Glo™ buffer.

U937 cells = assay: In vitro cell growth inhibition, MTT assay, U937; assay type: cell-based; settings: U937 cell line
HDAC6 [3] = target: T2, HDAC6 (Homo sapiens, UniProt Q9UBN7); assay: ELISA-based HDAC activity assay, HDAC6; settings: read-out: Deacetylase activity (%) HDAC6
T2 sequence (Q9UBN7 1-1215): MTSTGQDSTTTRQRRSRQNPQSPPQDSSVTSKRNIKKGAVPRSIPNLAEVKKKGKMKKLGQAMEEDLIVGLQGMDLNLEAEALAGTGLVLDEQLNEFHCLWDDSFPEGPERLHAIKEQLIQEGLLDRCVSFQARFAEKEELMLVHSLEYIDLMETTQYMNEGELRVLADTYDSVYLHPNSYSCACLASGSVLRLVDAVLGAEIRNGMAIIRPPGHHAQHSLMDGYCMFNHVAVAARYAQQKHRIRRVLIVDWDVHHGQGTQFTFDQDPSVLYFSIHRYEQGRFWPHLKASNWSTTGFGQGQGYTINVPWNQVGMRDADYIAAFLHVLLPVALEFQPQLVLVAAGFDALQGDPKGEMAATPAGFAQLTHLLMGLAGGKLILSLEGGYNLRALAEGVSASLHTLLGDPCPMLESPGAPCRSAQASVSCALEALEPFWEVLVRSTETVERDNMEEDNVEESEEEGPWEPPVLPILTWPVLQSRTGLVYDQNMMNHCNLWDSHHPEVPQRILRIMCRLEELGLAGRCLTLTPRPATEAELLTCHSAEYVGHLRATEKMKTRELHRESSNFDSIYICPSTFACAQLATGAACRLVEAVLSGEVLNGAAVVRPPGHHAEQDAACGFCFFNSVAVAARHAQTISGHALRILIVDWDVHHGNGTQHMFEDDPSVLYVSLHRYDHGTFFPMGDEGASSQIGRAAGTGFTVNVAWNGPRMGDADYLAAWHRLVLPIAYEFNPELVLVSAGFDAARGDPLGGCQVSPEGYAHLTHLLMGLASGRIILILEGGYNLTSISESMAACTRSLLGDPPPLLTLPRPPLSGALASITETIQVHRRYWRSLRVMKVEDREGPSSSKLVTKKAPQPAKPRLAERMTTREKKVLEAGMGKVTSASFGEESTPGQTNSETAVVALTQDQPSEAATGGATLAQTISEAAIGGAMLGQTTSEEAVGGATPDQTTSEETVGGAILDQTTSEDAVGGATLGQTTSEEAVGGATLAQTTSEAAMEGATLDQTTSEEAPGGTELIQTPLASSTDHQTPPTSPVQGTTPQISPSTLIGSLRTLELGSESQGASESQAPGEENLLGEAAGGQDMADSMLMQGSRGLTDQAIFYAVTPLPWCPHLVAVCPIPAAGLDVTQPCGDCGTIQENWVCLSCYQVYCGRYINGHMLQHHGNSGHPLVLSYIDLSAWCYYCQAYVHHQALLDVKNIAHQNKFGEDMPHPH

in vitro = settings: human, Jurkat cells (leukemia cell line)
recombinant HDAC8 = target: T3, recombinant HDAC8 (Homo sapiens, UniProt Q9BY41); assay: Recombinant HDAC8 inhibition (HDAC-Glo); assay type: biochemical; settings: read-out: Deacetylase activity (%) HDAC8
T3 construct: purchased BPS Bioscience
T3 sequence (Q9BY41 1-377): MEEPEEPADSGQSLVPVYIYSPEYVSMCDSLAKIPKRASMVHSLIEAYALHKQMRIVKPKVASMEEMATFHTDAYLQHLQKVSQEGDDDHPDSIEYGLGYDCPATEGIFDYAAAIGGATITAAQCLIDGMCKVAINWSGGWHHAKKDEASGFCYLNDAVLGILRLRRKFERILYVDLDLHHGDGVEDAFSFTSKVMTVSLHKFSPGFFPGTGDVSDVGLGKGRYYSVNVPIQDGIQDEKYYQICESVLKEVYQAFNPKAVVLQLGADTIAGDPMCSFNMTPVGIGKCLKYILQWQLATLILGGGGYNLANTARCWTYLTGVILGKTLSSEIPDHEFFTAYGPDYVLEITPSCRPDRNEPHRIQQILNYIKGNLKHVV
Description: Inhibitory activity with HDAC8 was measured using the following procedure. In a half area 96-well white opaque plate, recombinant HDAC8 (75 ng, BPS Bioscience) was incubated in HDAC-Glo™ buffer (39 μL) with inhibitor in DMSO (1 μL), or DMSO alone (1 μL) as a control, for 15 minutes at room temperature. HDAC-Glo™ reagent (10 μL) was added to each reaction and incubated for 30 min at room temperature. Luminescent signal was measured 30 minutes after adding the substrate reagent using a Geniosplus Fluorimeter (Tecan) at optimal gain. To determine IC50, the luminescent signal was first background corrected with the signal from a background control reaction where no HDAC8 enzyme was added.

HDAC1 [4] = target: T1, HDAC1; settings: single concentration 1 μM; cited from earlier work
HDAC6 [5] = target: T2, HDAC6; settings: single concentration 1 μM; cited from earlier work
[6] = system: acetyl-histone H3 (HDAC1, 2, 3 substrate) in U937 cells; assay: In cellulo selectivity testing, western blot of acetyl-histone H3; assay type: cell-based; settings: 18 hours, SAHA 5 μM
[7] = system: acetyl-α-tubulin (HDAC6 substrate) in U937 cells; assay: In cellulo selectivity testing, western blot of acetyl-α-tubulin; assay type: cell-based; settings: 18 hours, SAHA 5 μM, 1f 20-60 μM, compared to DMSO control
HDAC6 [8] = target: T2, HDAC6; settings: literature ref 55; cited from earlier work

Sequence of HDAC2 (Q92769 whole entry): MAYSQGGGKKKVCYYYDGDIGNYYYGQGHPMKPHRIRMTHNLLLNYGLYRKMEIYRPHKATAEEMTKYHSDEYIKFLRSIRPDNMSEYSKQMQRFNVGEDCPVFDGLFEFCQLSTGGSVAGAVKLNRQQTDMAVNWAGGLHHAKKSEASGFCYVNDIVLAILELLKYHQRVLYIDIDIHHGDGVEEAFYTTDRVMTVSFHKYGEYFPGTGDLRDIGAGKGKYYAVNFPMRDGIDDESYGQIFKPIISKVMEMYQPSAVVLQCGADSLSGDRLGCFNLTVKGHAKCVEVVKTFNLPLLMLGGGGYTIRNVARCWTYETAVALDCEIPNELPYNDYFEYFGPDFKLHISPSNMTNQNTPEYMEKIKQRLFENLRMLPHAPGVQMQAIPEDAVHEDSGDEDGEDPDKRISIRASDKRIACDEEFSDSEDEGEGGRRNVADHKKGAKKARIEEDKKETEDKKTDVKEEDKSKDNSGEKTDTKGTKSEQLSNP
Sequence of HDAC3 (O15379 whole entry): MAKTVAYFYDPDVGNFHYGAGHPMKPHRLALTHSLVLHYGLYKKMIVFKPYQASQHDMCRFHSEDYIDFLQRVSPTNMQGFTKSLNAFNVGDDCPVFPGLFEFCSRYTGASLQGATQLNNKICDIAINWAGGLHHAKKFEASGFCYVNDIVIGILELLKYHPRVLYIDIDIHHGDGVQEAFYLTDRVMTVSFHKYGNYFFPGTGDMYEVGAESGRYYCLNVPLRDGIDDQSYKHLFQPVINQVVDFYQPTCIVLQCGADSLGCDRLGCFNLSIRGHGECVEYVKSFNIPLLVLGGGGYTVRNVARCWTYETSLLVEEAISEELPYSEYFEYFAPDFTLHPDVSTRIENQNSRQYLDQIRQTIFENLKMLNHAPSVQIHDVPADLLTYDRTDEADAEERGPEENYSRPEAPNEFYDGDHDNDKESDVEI
Sequence of HDAC3 (Q9Y618 whole entry partner): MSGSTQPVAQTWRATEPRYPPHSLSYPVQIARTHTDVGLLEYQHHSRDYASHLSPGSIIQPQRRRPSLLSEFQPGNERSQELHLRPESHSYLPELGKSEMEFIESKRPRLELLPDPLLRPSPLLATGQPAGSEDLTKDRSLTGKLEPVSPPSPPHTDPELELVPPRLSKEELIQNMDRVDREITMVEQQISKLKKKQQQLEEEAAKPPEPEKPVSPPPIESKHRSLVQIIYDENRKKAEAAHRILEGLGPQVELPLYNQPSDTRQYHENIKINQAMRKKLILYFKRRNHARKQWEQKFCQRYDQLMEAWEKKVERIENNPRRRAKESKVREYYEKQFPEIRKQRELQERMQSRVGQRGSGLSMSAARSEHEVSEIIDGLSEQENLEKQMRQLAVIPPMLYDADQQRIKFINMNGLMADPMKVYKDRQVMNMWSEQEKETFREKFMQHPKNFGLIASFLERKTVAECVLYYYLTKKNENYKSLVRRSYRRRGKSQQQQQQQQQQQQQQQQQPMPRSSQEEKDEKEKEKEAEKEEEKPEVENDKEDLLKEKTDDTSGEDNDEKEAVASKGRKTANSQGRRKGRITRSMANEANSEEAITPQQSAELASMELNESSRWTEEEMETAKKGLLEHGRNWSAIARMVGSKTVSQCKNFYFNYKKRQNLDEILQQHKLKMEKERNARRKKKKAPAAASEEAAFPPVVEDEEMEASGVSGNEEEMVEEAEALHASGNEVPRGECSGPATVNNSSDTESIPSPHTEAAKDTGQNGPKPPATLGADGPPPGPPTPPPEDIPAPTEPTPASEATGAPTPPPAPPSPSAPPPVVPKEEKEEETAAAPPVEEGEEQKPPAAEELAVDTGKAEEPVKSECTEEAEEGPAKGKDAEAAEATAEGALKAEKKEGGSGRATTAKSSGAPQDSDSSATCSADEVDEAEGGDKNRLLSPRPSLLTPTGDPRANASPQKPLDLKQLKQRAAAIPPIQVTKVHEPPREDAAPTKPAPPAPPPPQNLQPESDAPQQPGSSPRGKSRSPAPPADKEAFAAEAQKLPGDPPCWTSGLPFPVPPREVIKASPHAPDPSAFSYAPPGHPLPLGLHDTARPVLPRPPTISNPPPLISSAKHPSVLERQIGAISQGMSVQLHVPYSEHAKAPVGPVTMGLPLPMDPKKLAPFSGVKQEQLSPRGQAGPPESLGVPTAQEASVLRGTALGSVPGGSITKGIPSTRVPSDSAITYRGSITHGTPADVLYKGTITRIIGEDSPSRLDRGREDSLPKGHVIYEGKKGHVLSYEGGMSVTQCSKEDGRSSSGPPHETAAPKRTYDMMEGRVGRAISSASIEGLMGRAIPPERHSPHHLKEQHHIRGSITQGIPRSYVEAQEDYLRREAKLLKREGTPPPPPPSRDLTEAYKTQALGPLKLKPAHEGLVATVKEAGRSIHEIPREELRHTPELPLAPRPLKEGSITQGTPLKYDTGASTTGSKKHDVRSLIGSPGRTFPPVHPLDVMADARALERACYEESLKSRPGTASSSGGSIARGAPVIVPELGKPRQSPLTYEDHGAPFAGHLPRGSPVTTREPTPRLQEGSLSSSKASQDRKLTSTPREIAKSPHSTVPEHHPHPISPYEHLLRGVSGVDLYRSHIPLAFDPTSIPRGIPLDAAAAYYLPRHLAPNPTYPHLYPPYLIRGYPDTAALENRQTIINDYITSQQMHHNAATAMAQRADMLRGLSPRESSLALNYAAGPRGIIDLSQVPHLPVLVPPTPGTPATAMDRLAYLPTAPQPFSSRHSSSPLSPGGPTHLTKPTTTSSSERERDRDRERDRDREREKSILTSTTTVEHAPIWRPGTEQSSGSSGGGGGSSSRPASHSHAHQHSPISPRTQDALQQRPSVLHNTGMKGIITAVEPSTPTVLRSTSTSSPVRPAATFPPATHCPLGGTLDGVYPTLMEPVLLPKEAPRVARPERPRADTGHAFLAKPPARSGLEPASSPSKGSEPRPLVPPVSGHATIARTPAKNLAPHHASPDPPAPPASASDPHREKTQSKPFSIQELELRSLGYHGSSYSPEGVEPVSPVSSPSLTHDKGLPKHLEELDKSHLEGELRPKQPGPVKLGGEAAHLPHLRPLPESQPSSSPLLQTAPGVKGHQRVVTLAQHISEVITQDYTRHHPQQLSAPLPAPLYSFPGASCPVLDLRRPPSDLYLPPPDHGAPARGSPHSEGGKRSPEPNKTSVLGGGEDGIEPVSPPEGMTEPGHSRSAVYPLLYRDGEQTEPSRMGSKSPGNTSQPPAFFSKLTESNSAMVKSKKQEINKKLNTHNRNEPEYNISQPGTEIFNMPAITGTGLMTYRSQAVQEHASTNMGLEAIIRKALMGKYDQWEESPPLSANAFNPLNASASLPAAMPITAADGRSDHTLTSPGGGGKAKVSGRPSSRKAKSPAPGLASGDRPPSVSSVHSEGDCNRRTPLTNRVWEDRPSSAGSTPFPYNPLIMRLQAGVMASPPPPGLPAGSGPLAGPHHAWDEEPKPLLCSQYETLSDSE

activity at 3.5 µM (HDAC2): 81 ± 5%
activity at 7 µM (HDAC2): 71 ± 2%
activity at 14 µM (HDAC2): 57 ± 1%
activity at 28 µM (HDAC2): 43 ± 2%
activity at 56 µM (HDAC2): 18 ± 10%
activity at […] (HDAC2): 87 ± 1%
activity at 3.5 µM (HDAC3): 79 ± 3%
activity at 7 µM (HDAC3): 79 ± 3%
activity at 14 µM (HDAC3): 64 ± 2%
activity at 28 µM (HDAC3): 48 ± 5%
activity at 56 µM (HDAC3): 25 ± 5%
activity at 3.5 µM (HDAC1 [1]): 81 ± 1%
activity at 7 µM (HDAC1 [1]): 67 ± 2%
activity at 14 µM (HDAC1 [1]): 53 ± 3%
activity at 28 µM (HDAC1 [1]): 35 ± 1%
activity at 56 µM (HDAC1 [1]): 19 ± 1%
EC50 (U937 cells): 34 µM
activity at 0.05 µM (HDAC6 [3]): 61 ± 6%
activity at 0.1 µM (HDAC6 [3]): 46 ± 9%
activity at 0.2 µM (HDAC6 [3]): 39 ± 5%
activity at 0.4 µM (HDAC6 [3]): 23 ± 3%
activity at […] (HDAC6 [3]): 70 ± 6%
activity at 0.1 µM (recombinant HDAC8; 1.0 × 10^−7 M): 41 ± 5%
activity at 0.0125 µM (recombinant HDAC8; 1.25 × 10^−8 M): 84 ± 1%
activity at 0.2 µM (recombinant HDAC8; 2.0 × 10^−7 M): 28 ± 4%
activity at […] (recombinant HDAC8; 2.5 × 10^−8 M): 74 ± 3%
activity at 0.05 µM (recombinant HDAC8; 5.0 × 10^−8 M): 61 ± 7%
Compound: CCCCC(CCCC(=O)Nc1ccccc1)CCC(=O)NO (racemic) [Compound 1c, 4-butyl-N^1-hydroxy-N^8-phenyloctanediamide]
Deacetylase activity (%) ([2]; 3.0 × 10^−5 M): 69 ± 2%
Deacetylase activity (%) ([2]; 6.0 × 10^−5 M): 44 ± 4%
Deacetylase activity (%) ([2]; […] 10^−4 M): 24 ± 1%
Deacetylase activity (%) ([2]; […] 10^−5 M): 88 ± 1%
Deacetylase activity (%) ([2]; […] 10^−6 M): 97 ± 2%
viability at 44 h, 1 µM (in vitro): 98 ± 6%
viability at 44 h, 10 µM (in vitro): 62 ± 16%

Compound: O=C(CCCCCCC(=O)Nc1ccccc1)NO [SAHA, suberoylamide hydroxamic acid]
Deacetylase activity (%) HDAC1 (HDAC1 [4]): 8.9 ± 0.1%
Deacetylase activity (%) HDAC6 (HDAC6 [5]): 7.9 ± 1.6%
levels of acetyl-histone H3 (AcH3), western blot [6]: increases levels
viability at 44 h, 10 µM (in vitro): 5 ± 3%
levels of acetyl-α-tubulin (AcTub), western blot [7]: increases levels

Compound: CCCC(CCC)C(=O)NO [Valpropylhydroxamic acid]
fold selectivity for HDAC6 and 8 against HDAC1, 2, and 3 (reported) (HDAC6 [8]): 9-17 fold
